Experimental data: patent EP4682145A1, “BENZOHETEROCYCLIC COMPOUND, AND PREPARATION METHOD THEREFOR AND USE THEREOF” (Cascade Pharmaceuticals, Inc., priority 2023, dated 2024)
Marks after values point to notes of the source that are not given here.

Legend:
[1] = molecular target: T1, human FFAR1 (GPR40) (Homo sapiens, UniProt O14842); assay: NFAT-RE-based reporter gene activity assay (Dual-Glo luciferase) for GPR40 agonistic activity in co-transfected HEK293T cells; type: cell-based; details: 4-hour treatment
T1 construct: Flag; expressed in transfected cells; host or cells: HEK293T
T1 sequence (O14842 whole entry): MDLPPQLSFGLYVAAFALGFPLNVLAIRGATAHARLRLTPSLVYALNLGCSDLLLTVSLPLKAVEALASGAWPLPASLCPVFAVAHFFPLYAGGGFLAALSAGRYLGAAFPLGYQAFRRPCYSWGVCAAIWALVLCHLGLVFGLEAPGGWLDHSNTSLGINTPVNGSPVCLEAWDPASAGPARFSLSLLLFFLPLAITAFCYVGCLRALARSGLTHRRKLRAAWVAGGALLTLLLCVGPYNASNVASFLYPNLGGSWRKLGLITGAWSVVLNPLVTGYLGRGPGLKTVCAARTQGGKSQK
Method in brief: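 HEK293T cells co-transfected with human FFAR1, NFAT-RE firefly luciferase and TK-Renilla plasmids; 24 h later treated 4 h with 10 half-log compound dilutions from 1 µM. Firefly/Renilla ratio normalised to DMSO; EC50 from four-parameter fit.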

[2] = tested on: high-fat diet-induced DIO mice; assay: Oral glucose tolerance test (OGTT) in high-fat diet-induced DIO mice; type: in vivo
From the text: Normal male C57BL6/J mice (8-9 weeks old) were housed 3-4 per cage and fed a high-fat, high-cholesterol, high-fructose diet (D09100310, Research Diets) for 13 weeks with unrestricted access to water. After 13 weeks of high-fat, high-cholesterol, high-fructose diet feeding, the mice were randomly divided into 5 groups based on body weight and blood glucose levels, with age-matched mice fed a normal diet serving as the normal blank control group, with 6 mice in each group. Under fasting conditions (16 hours), the test compound 169 was administered via oral gavage at different concentrations of 0.03, 0.1, 0.6, and 3 mg/kg, while the normal blank control and model control groups were given the vehicle (15% solutol + 85% DDW solution), with a dosing volume of 10 mL/kg. On the day of administration, blood glucose levels in mice were measured. 2 hours after oral gavage administration, each group was given 2 g/kg of glucose orally. Blood glucose levels were measured at 0, 15, 30, 60, 90, 120, and 150 minutes after glucose administration.
Blood glucose levels were measured at 0, 15, 30, 60, and 120 minutes after glucose administration. […]
Note: BG0, BG15, BG30, BG60, BG90, and BG120 represent the blood glucose levels at 0, 15, 30, 60, 90, and 120 minutes after glucose administration, respectively.
Data were expressed as mean ± standard deviation. One-way ANOVA was employed for statistical analysis, with p < 0.05 considered statistically significant.

[3] = tested on: normal male C57BL6/J mice; assay: In vivo hypoglycemia risk assay in fasted normal C57BL6/J mice; details: for Blood Glucose / AUC 0-120 minutes: fasted 16 hours; for AUC 0-120 minutes: blood glucose AUC
Description: The blank control group was orally administered with the vehicle control (2% DMO + 15% solutol + 83% DDW solution), with a dosing volume of 10 mL/kg. […] […] Data were expressed as mean ± standard deviation. One-way ANOVA was employed for statistical analysis, with p < 0.05 considered statistically significant.

## COc1ccc(F)c(N2CCC(c3oc4cc([C@@H](CC(=O)O)C5CC5)ccc4c3-c3ccc(C(C)(C)C)cc3)CC2)c1 [Compound 169]
[1]
  EC50: 100 to 500 nM
[1]; class symbols
  Efficacy (%): ††† (Efficacy (%) > 150)
[2]; 0.03 mg/kg oral gavage, 0 minutes after glucose (2 g/kg)
  Blood Glucose: 10.78 ± 0.81 mmol/L
[2]; 0.03 mg/kg oral gavage, 15 minutes after glucose
  Blood Glucose: 20.08 ± 2.94 mmol/L
[2]; 0.03 mg/kg oral gavage, 30 minutes after glucose
  Blood Glucose: 16.63 ± 3.66 mmol/L
[2]; 0.03 mg/kg oral gavage, 60 minutes after glucose
  Blood Glucose: 14.62 ± 3.62 mmol/L
[2]; 0.03 mg/kg oral gavage, 90 minutes after glucose
  Blood Glucose: 14.92 ± 2.34 mmol/L
[2]; 0.03 mg/kg oral gavage, 150 minutes after glucose
  Blood Glucose: 10.75 ± 1.1 mmol/L
[2]; 0.1 mg/kg oral gavage, 0 minutes after glucose (2 g/kg)
  Blood Glucose: 9.28 ± 2.89 mmol/L
[2]; 0.1 mg/kg oral gavage, 15 minutes after glucose
  Blood Glucose: 17.65 ± 2.09 mmol/L
[2]; 0.1 mg/kg oral gavage, 30 minutes after glucose
  Blood Glucose: 18.67 ± 4.11 mmol/L
[2]; 0.1 mg/kg oral gavage, 60 minutes after glucose
  Blood Glucose: 13.53 ± 3.03 mmol/L
[2]; 0.1 mg/kg oral gavage, 90 minutes after glucose
  Blood Glucose: 10.27 ± 1.68 mmol/L
[2]; 0.1 mg/kg oral gavage, 120 minutes after glucose
  Blood Glucose: 10.05 ± 1.47 mmol/L
[2]; 0.1 mg/kg oral gavage, 150 minutes after glucose
  Blood Glucose: 10.17 ± 1.68 mmol/L
[2]; 0.6 mg/kg oral gavage, 0 minutes after glucose (2 g/kg)
  Blood Glucose: 9.57 ± 2.06 mmol/L
[2]; 0.6 mg/kg oral gavage, 15 minutes after glucose
  Blood Glucose (mmol/L): 16.48± 2.15** * mmol/L
[2]; 0.6 mg/kg oral gavage, 30 minutes after glucose
  Blood Glucose: 12.97 ± 3.71 mmol/L
[2]; 0.6 mg/kg oral gavage, 60 minutes after glucose
  Blood Glucose: 11.98 ± 2.95 mmol/L
[2]; 0.6 mg/kg oral gavage, 90 minutes after glucose
  Blood Glucose: 11.27 ± 2.66 mmol/L
[2]; 0.6 mg/kg oral gavage, 120 minutes after glucose
  Blood Glucose: 9.12 ± 2.14 mmol/L
[2]; 0.6 mg/kg oral gavage, 150 minutes after glucose
  Blood Glucose: 9.52 ± 1.62 mmol/L
[2]; 3 mg/kg oral gavage, 0 minutes after glucose (2 g/kg)
  Blood Glucose: 13.02 ± 2.46 mmol/L
[2]; 3 mg/kg oral gavage, 15 minutes after glucose
  Blood Glucose: 17.22 ± 2.02 mmol/L
[2]; 3 mg/kg oral gavage, 30 minutes after glucose
  Blood Glucose: 14 ± 3.49 mmol/L
[2]; 3 mg/kg oral gavage, 60 minutes after glucose
  Blood Glucose: 10.52 ± 2.23 mmol/L
[2]; 3 mg/kg oral gavage, 90 minutes after glucose
  Blood Glucose: 9.88 ± 0.85 mmol/L
[2]; 3 mg/kg oral gavage, 120 minutes after glucose
  Blood Glucose: 8.3 ± 1.63 mmol/L
[2]; 3 mg/kg oral gavage, 150 minutes after glucose
  Blood Glucose (mmol/L): 7.37±1.44* * mmol/L
[2]; blood glucose AUC, 0.03 mg/kg oral gavage
  AUC0-150 min: 2194 ± 132.70 mmol·min
[2]; blood glucose AUC, 0.1 mg/kg oral gavage, 0.1 mg/kg
  AUC0-150 min (mmol*min): significantly reduced
[2]; blood glucose AUC, 0.6 mg/kg oral gavage, 0.6 mg/kg
  AUC0-150 min (mmol*min): 1725± 119.90 **** mmol*min
[2]; blood glucose AUC, 0.6 mg/kg oral gavage, listed as compound 169, 0.6 mg/kg
  AUC0-150 min (mmol*min): significantly reduced
[2]; blood glucose AUC, 3 mg/kg oral gavage, 3 mg/kg
  AUC0-150 min (mmol*min): 1642±91.83 **** mmol*min
[2]; blood glucose AUC, 3 mg/kg oral gavage, listed as compound 169, 3 mg/kg
  AUC0-150 min (mmol*min): significantly reduced
[3]; 3 mg/kg oral, 0 minutes after administration
  Blood Glucose: 4.3 ± 0.59 mmol/L
[3]; 3 mg/kg oral, 30 minutes after administration
  Blood Glucose: 5.42 ± 0.56 mmol/L
[3]; 3 mg/kg oral, 60 minutes after administration
  Blood Glucose: 4.73 ± 0.82 mmol/L
[3]; 3 mg/kg oral, 120 minutes after administration
  Blood Glucose: 4.1 ± 0.51 mmol/L
[3]; 10 mg/kg oral, 0 minutes after administration
  Blood Glucose: 4.65 ± 0.75 mmol/L
[3]; 10 mg/kg oral, 30 minutes after administration
  Blood Glucose: 6.1 ± 1.01 mmol/L
[3]; 10 mg/kg oral, 60 minutes after administration
  Blood Glucose: 4.92 ± 1.01 mmol/L
[3]; 10 mg/kg oral, 120 minutes after administration
  Blood Glucose: 4 ± 0.87 mmol/L
[3]; 3 mg/kg oral
  AUC 0-120 minutes: 563 ± 34.91 mmol·min
[3]; 10 mg/kg oral
  AUC 0-120 minutes: 594 ± 49.00 mmol·min
[3]; judged from AUC0-120 min versus blank control, Glibenclamide 10 mg/kg, compound 169 at 3 mg/kg and 10 mg/kg
  risk of hypoglycemia: no risk of hypoglycemia
